These results are taken from patent US8372836B2, “Spray dried formulation” (Bend Research, Inc., priority 2006, dated 2013).

SMILES strings stand for the structures. Values after ≈ are worked out from the molar mass of the structure shown. Where two headings read alike, the source gives them in different places.

Series [1] in a line: Acidic pKa. Conditions: for pKa: distilled water. The class given is physicochemical.
Excerpt: Here, the term pKa is used in its traditional form, the pKa being the negative logarithm of the acid ionization constant.
Series [2] can be described thus: In vitro dissolution test of Drug 2 dispersion in MFD solution. Type of series: physicochemical. Conditions: 37° C.
Description: Next, a 50 μL sample of this suspension was added to microcentrifuge tubes in duplicate. The tubes were placed in a 37° C. temperature-controlled chamber, and 1.75 mL MFD solution was added to each respective tube. […] The samples were quickly mixed using a vortex mixer for about 60 seconds. The samples were centrifuged at 13,000 G at 37° C. for 1 minute. The resulting supernatant solution was then sampled and diluted 1:6 (by volume) with methanol and then analyzed by high-performance liquid chromatography (HPLC). HPLC analysis was performed using an Agilent RX-C18 4.6×75 mm 3.5 μM column, with a mobile phase of 65/35 v/v 0.1 wt % trifluoroacetic acid/acetonitrile, and UV absorbance measured at 220 nm. The contents of each respective tube were mixed on the vortex mixer and allowed to stand undisturbed at 37° C. until the next sample was taken. Samples were collected at 4, 10, 20, 40, 90, and 1200 minutes.
A short description of series [3]: Solubility in volatile organic solvents. The class given is physicochemical. Conditions: for solubility: organic solvent or mixture. The text has this:
The drug is poorly soluble in volatile organic solvents. By “volatile organic solvent” is meant a solvent selected from the group consisting of acetone, methanol, tetrahydrofuran, ethyl acetate, mixtures of any one of these with water, and mixtures of these with each other. […] As used herein, the solubility is assumed to be measured at ambient temperature and pressure.

The nature of series [4]: In vitro dissolution test of Drug 1 dispersions in MFD solution. The class given is physicochemical. Conditions: 37° C. Here is the method: For these tests, suspensions were formed by adding a sufficient quantity of the dispersions of Example 1 or Example 2 to water containing 0.5 wt % Methocel Type A such that each suspension contained 7.2 mgA/mL Drug 1. Next, a 50 μL sample of each suspension was added to microcentrifuge tubes in duplicate. […] HPLC analysis was performed using an Zorbax RX-C18 4.6×75 mm […] column, with a mobile phase of 63/37 v/v aqueous 0.1 wt % trifluoroacetic acid/acetonitrile, and UV absorbance measured at 220 nm.
The concentrations of dissolved Drug 1 obtained in these samples were used to determine the maximum dissolved concentration of Drug 1 in solution during the first ninety minutes of the test (MDC90), the area under the concentration-versus-time curve during the initial ninety minutes (“AUC90”), and the concentration of Drug 1 at 1200 minutes (“C1200”).

Series [5] is described as follows: Aqueous solubility of neutral form of drug (MFD or PBS solution, pH 6.5). Type of series: physicochemical.
Description: Solubility may be measured at 25° C. in water or a phosphate buffered saline (PBS) solution adjusted to a pH between 6 and 7.
An appropriate PBS solution is an aqueous solution comprising 20 mM sodium phosphate (Na2HPO4), 47 mM potassium phosphate (KH2PO4), 87 mM NaCl, and 0.2 mM KCl, adjusted to pH 6.5 with NaOH. An appropriate MFD solution is the same PBS solution wherein there is also present 7.3 mM sodium taurocholic acid and 1.4 mM of 1-palmitoyl-2-oleyl-sn-glycero-3-phosphocholine. In particular, a composition of the present invention may be dissolution-tested by adding it to MFD or PBS solution and agitating to promote dissolution.
For series [6] the following is noted: dissolved Drug 3; dispersion pre-suspended in 0.5 wt % Methocel A + 15 mg/mL HPMCAS-HF in PBS, then MFD; 200 μgA/mL dosed; Control 3 as in Example 5 test.
Description: The test was run in duplicate. The tubes were placed in a 37° C. temperature-controlled chamber, and 1.8 mL MFD solution at pH 6.5 and 290 mOsm/kg, was added to each respective tube. The samples were quickly mixed using a vortex mixer for about 60 seconds. The samples were centrifuged at 13,000 G at 37° C. for 1 minute. The resulting supernatant solution was then sampled and diluted 1:6 (by volume) with methanol and analyzed by high-performance liquid chromatography (HPLC). HPLC analysis was performed using a Waters Symmetry C8 column. The mobile phase consisted of 45% 20 mM KH2PO4, adjusted to pH 3, 30% acetonitrile, and 25% methanol. UV absorbance was measured at 270 nm. The contents of each tube were mixed on the vortex mixer and allowed to stand undisturbed at 37° C. until the next sample was taken. Samples were collected at 4, 10, 20, 40, 90, and 1200 minutes.
The solution was then analyzed for dissolved Drug 3 concentration versus time, as previously described.
Series [7] can be described thus: In vitro dissolution test of Drug 3 dispersion in MFD solution. The class given is physicochemical. Particulars: dissolved Drug 3, initial 90 min; MFD solution pH 6.5, 37° C., 200 μgA/mL dosed.

Regarding `Nc1nc(C(F)(F)F)cc2c1[nH]c(=O)n2Cc1ccccc1` [Drug 2, 4-amino-1-benzyl-6-trifluoromethyl-1,3-dihydro-imidazo[4,5-c]pyridine-2-one], the pKa in series [1] turned out to be 11.3. This compound also yielded a C1200 in series [2] (Drug 2 concentration at 1200 minutes) of 1.0 µg/mL. In addition, the AUC90 in series [2] (dissolved Drug 2, initial 90 min, 200 μgA/mL dosed) was determined as 44 µg·min/mL.

Consider `Nc1nc(C(=O)NCC2CC2)nc2c1[nH]c(=O)n2Cc1ccccc1` [Drug 1, 6-amino-9-benzyl-8-oxo-8,9-dihydro-7H-purine-2-carboxylic acid cyclopropylmethyl-amide], for which the pKa in series [1] was 7.3. Further, the solubility in series [3] (acetone, read-out: solubility in acetone) was 25 µg/mL (≈ 73.9 µM); in series [3] (methanol, read-out: solubility in methanol), 59 µg/mL (≈ 174 µM); in series [5] (fassif, MFD solution pH 6.5, read-out: solubility in a pH 6.5 MFD solution) it was approximately 3 µg/mL (≈ 8.87 µM). Besides, the solubility in methanol entry in series [3] (crystalline neutral form, methanol) is recorded as “about 0.059 mgA/mL”. Moreover, in series [4] (Drug 1 concentration at 1200 minutes), the C1200 is less than 0.1 µg/mL. In series [4] (dissolved Drug 1, first 90 min, 200 μgA/mL dosed), this compound returned an MDC90 of 1 µg/mL. In series [4] (dissolved Drug 1, initial 90 min, 200 μgA/mL dosed), this compound showed an AUC90 of less than 88 µg·min/mL.

With `Cc1c(S(=O)(=O)c2ccc(=O)[nH]n2)oc2ccc(Cl)cc12` [Drug 3, 6-(5-chloro-3-methyl-benzofuran-2-sulfonyl)-2H-pyridazin-3-one], the AUC90 in series [6] and in series [7] was 540 min*μgA/mL each time. Also, the MDC90 in series [6] and in series [7] was 8 μgA/mL each time. Besides, the “acidic pKa” value in series [1] was determined as 6.9. Besides, the solubility in series [3] (THF, 25° C., neutral form, read-out: solubility in THF at 25° C.) is approximately 12000 µg/mL (≈ 37000 µM); in series [3] (acetone, 25° C., neutral form, read-out: solubility in acetone at 25° C.), approximately 4700 µg/mL (≈ 14500 µM); in series [3] (methanol, 25° C., neutral form, read-out: solubility in methanol at 25° C.) it was approximately 1500 µg/mL (≈ 4620 µM); in series [5] (phosphate buffered saline, aqueous buffer, PBS pH 6.5, read-out: solubility in phosphate buffered saline solution at pH of 6.5) it was less than 1 µg/mL.

One may read the pKa as the pH at which an ionisable group is half protonated. High values mean a group that holds its proton tightly, low ones a group that gives up its proton readily. The solubility is how much of the substance goes into solution per volume.
